Laboratory results: ChEMBL document CHEMBL1909635, “Selectivity of 3'-O-methylponkoranol for inhibition of N- and C-terminal maltase glucoamylase and sucrase isomaltase, potential therapeutics for digestive disorders or their sequelae” (Bioorg Med Chem Lett, 2011)
pKi: −log10 of the molar value.

Legend:
[1] = Inhibition of human recombinant C-terminal subunit of maltase-glucoamylase-N20 by Lineweaver-Burk plot analysis
[2] = target: T1, Sucrase-isomaltase, intestinal (Homo sapiens, UniProt P14410); assay: Inhibition of human recombinant N-terminal Sucrase-isomaltase by Lineweaver-Burk plot analysis
[3] = Inhibition of human recombinant C-terminal subunit of maltase-glucoamylase-N2 by Lineweaver-Burk plot analysis
[4] = target: T1, Sucrase-isomaltase, intestinal; assay: Inhibition of human recombinant C-terminal Sucrase-isomaltase by Lineweaver-Burk plot analysis
Homo sapiens [5] = species on record: Homo sapiens; assay: Selectivity ratio of Ki for human recombinant N-terminal Sucrase-isomaltase to Ki for human recombinant C-terminal Sucrase-isomaltase
Homo sapiens [6] = species on record: Homo sapiens; assay: Selectivity ratio of Ki for human recombinant N-terminal maltase-glucoamylase to Ki for human recombinant C-terminal subunit of maltase-glucoamylase-N20
Homo sapiens [7] = species on record: Homo sapiens; assay: Selectivity ratio of Ki for human recombinant N-terminal maltase-glucoamylase to Ki for human recombinant C-terminal subunit of maltase-glucoamylase-N2
Homo sapiens [8] = species on record: Homo sapiens; assay: Selectivity ratio of Ki for human recombinant N-terminal maltase-glucoamylase to Ki for human recombinant C-terminal Sucrase-isomaltase

T1 sequence (P14410 2-1007 limits assumed): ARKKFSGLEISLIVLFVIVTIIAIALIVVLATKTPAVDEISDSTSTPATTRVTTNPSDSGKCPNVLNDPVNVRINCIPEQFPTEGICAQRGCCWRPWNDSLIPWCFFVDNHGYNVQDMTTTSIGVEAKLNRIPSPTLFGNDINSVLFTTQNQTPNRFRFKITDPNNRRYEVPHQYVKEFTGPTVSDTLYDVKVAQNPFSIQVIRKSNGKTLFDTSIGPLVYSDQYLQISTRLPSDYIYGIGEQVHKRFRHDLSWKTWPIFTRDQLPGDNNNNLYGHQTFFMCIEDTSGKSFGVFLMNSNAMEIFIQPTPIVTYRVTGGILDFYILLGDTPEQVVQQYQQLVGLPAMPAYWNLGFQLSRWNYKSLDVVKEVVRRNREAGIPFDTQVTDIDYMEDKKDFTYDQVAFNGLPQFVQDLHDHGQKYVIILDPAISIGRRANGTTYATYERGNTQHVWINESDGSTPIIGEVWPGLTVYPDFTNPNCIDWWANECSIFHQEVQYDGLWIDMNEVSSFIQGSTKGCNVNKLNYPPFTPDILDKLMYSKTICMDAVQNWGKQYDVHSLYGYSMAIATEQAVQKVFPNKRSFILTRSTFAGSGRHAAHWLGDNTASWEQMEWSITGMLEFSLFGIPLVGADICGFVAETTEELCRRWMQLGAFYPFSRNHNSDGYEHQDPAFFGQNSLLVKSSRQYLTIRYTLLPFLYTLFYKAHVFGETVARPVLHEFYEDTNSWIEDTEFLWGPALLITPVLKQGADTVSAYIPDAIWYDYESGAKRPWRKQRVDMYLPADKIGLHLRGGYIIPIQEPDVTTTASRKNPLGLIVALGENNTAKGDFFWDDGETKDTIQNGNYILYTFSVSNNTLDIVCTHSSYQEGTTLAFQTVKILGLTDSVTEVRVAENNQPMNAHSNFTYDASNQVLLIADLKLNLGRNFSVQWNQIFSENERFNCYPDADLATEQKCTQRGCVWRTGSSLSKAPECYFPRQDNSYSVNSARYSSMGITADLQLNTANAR
T1 sequence (P14410 1008-1827 limits assumed): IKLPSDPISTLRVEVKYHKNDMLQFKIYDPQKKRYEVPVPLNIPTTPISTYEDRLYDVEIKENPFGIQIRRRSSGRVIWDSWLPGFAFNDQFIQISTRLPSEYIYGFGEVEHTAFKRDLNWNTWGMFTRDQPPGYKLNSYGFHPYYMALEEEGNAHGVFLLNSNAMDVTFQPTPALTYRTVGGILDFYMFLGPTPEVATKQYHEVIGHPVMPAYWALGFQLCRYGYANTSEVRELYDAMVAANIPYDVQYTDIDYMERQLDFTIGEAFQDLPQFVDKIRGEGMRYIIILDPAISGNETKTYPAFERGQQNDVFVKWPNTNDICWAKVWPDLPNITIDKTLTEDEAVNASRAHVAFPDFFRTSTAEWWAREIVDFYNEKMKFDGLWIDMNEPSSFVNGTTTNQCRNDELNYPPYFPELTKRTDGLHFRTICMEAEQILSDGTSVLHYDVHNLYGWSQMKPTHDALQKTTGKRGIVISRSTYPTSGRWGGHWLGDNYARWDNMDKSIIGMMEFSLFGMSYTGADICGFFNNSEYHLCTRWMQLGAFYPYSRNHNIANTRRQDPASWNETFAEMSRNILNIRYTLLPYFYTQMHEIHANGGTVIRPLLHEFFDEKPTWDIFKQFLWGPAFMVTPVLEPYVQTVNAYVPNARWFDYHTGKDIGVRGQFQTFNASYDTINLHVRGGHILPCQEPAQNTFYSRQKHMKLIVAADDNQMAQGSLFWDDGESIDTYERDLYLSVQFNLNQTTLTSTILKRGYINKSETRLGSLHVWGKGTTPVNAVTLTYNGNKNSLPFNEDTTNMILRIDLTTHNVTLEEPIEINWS

| Compound | pKi [1] | pKi [2] | Ki [3] | pKi [4] | Ratio Ki (Homo sapiens [5]) | Ratio Ki (Homo sapiens [6]) | Ratio Ki (Homo sapiens [7]) | pKi ([3]; read-out: Ki) | Ratio Ki (Homo sapiens [8]) |
| --- | --- | --- | --- | --- | --- | --- | --- | --- | --- |
| OC[C@@H]1[C@@H](O)[C@H](O)C[S@@+]1C[C@@H](O)[C@@H](O)[C@H](O)[C@@H](O)CO.[Cl-] [NEOPONKORANOL] | 7.02 | 6.52 | Not Active | 6.99 |  |  |  |  |  |
| CO[C@@H]([C@H](O)[C@@H](O)CO)[C@H](O)C[S@+]1C[C@@H](O)[C@H](O)[C@H]1CO | 7.26 | 7.46 |  | 8.15 | 5 | 10 | 10 | 7.22 | 70 |
